≈ marks a conversion by molar mass, not a printed value. Residues, ends and D or L forms follow the SMILES beside them.
Columns and labels:
in vitro [1] = conditions: hepatocytes
in vitro [2] = conditions: human, liver microsomes
in vitro [3] = conditions: human, plasma
physchem [4] = conditions: octan-1-ol/water
physchem [5] = conditions: pH 7.4 buffer

SMILES | hepatocyte CLint (in vitro [1]) [µL/min/1e6 cells] | microsomal CLint (in vitro [2]) [µL/min/mg] | fraction unbound at 5 h (in vitro [3]; PPB) | logD (physchem [4]; pH 7.4, LogD7.4) | other results
O=C(NCCCCCCNCCc1ccc(O)c2nc(O)sc12)Nc1ccccc1 | 98 | 11 | – | – | –
CC(=O)N1N=C(c2ccc(Br)cc2)CC1c1ccc(C)cc1 (stereo not given) | 30.9 | 41.7 | – | – | –
COc1ccc2ncc(C#N)c(CCN3CCC(NCc4cc5c(cn4)OCS5)CC3)c2c1 | 72.4 | – | 0.089 | 2.55 | –
O=C(NS(=O)(=O)c1ccccc1Cl)c1ccc[nH]1 | 3.31 | < 3 | – | – | –
O=c1cc(-c2cccnc2)[nH]c2cc(C(O)c3ccccc3)ccc12 (stereo not given) | 46 | – | 0.0268 | – | solubility thermodynamic (physchem [5]): 288 µM (≈ 94.7 µg/mL)
C[C@@H]1CN(Cc2cc(Cl)ccc2OCC(=O)O)CCN1S(=O)(=O)c1ccccc1 | 7.48 | – | 0.0051 | – | –
C[C@H]1CN(Cc2cc(Cl)ccc2CCC(=O)O)CCN1C(=O)Cc1ccccc1 | < 3 | < 3 | – | – | –
Cc1ccc(CO)cc1N(C)c1ccnc(Nc2cc(N3CCOCC3)cc(N3CCOCC3)c2)n1 | 31.6 | – | 0.0818 | 2.94 | solubility thermodynamic (physchem [5]): 195 µM (≈ 95.7 µg/mL)
Cc1cc(Nc2nc(N[C@@H](C)c3ccc(F)cn3)c(C#N)cc2Cl)n[nH]1 | 6.17 | – | 0.0358 | – | –
O=c1[nH]c2c(O)ccc([C@@H](O)CNCCCSCCNCCc3ccccc3Cl)c2s1 | 12 | 11 | – | – | –
COc1cccc(CNc2nc(NC(C)C)nc3ccsc23)c1OC | > 150 | – | – | – | fraction unbound at 5 h (in vitro [3]): 0.0027
COc1cc2c(ccc(=O)n2CCN2CCC(NCc3cc4c(cn3)OCCO4)CC2)cn1 | 35.5 | – | 0.166 | 0.68 | –
C[C@@](C(=O)O[C@H]1C[N+]2(CCCc3ccncc3)CCC1CC2)(c1ccccc1)N1CCCCC1 | 82 | – | – | – | fraction unbound at 5 h (in vitro [3]): 0.483
CC(=O)Nc1ccc2ccn(-c3cc(NC4COC4)n4ncc(C#N)c4n3)c2c1 | 21.9 | – | 0.124 | 2.24 | –
CC(=O)Nc1ccc2c(c1)c(-c1cc(NC3CC3)n3ncc(C#N)c3n1)cn2CCCO | 12.3 | – | 0.0119 | 2.48 | –
CO[C@H]1CC[C@]2(CC1)Cc1ccc(-c3cc(Cl)cc(C#N)c3)cc1C21N=C(C)C(N)=N1 (stereo not given in full) | 12.6 | – | 0.0209 | 3.8 | –

SMILES | hepatocyte CLint (in vitro [1]) [µL/min/1e6 cells] | microsomal CLint (in vitro [2]) [µL/min/mg] | fraction unbound at 5 h (in vitro [3]; PPB) | logD (physchem [4]; pH 7.4, LogD7.4) | other results
Cc1cccc(C[C@@H](C(=O)O)N2CCC(CN3CCC(Oc4ccc(Cl)c(Cl)c4)CC3)CC2)c1 | < 3 | < 3 | – | – | –
Cc1cn([C@H]2CCCN([C@@H](CC(C)(C)C)c3ccc(C(=O)O)c(Oc4cccc(Br)c4)c3)C2)c(=O)[nH]c1=O | < 3 | – | 0.0099 | 1.12 | –
Cc1cn([C@H]2CCCN([C@H](CC3CCOCC3)c3ccc(C(=O)O)c(Oc4cccc(Cl)c4)c3)C2)c(=O)[nH]c1=O | 19.1 | – | 0.107 | -0.25 | –
O=C(NCc1ccccc1)c1ccc2cccnc2c1O | 22.8 | 49 | – | – | –
COC(=O)C1=C(C)NC2=C(C(=O)CC(C)(C)C2)C1c1ccc(-c2ccc(C(F)(F)F)cc2)cc1 (stereo not given) | 12.3 | 9.12 | – | – | –
CCc1cccc2c1N(C)Cc1cc3c(cc1-2)OCO3 | > 150 | 44.7 | – | – | –
Cc1cn([C@H]2CCCN(S(=O)(=O)c3ccc(O)c(Oc4cccc(Br)c4)c3)C2)c(=O)[nH]c1=O | 38 | – | 0.0139 | 2.3 | –
C=CC(=O)Nc1ccc2ncnc(Nc3cccc(C)c3)c2c1 | > 150 | – | – | 3.7 | solubility thermodynamic (physchem [5]): 16.6 µM (≈ 5.05 µg/mL)
C[C@@H]1CN(c2ccc(F)cc2C(F)(F)F)CCN1S(=O)(=O)c1ccc(C(N)=O)cc1Cl | 63.1 | 6.31 | – | – | –
CCCCCCCC(=O)N[C@@H](C)C(=O)N[C@H](C(=O)N[C@@H](CCN)C(=O)N[C@H]1CCNC(=O)[C@H]([C@@H](C)O)NC(=O)[C@H](CCN)NC(=O)[C@H](CCN)NC(=O)[C@H](CC(C)C)NC(=O)[C@@H](Cc2ccccc2)NC(=O)[C@H](CCN)NC1=O)[C@@H](C)O (HELM PEPTIDE1{[CCCCCCCC(=O)[*:2]].A.T.[Dab].[Dab].[Dab].[dF].L.[Dab].[Dab].T}$PEPTIDE1,PEPTIDE1,5:R3-11:R2$$$V2.0) | < 3 | – | 0.107 | – | –
CC(=O)N[C@@H](CCN)C(=O)N[C@H](C(=O)N[C@@H](CCN)C(=O)N[C@H]1CCNC(=O)[C@H]([C@@H](C)O)NC(=O)[C@H](CCN)NC(=O)[C@H](CCN)NC(=O)[C@H](CC(C)C)NC(=O)[C@@H](Cc2ccccc2)NC(=O)[C@H](CCN)NC1=O)[C@@H](C)O [DEACYL POLYMYXIN B] (HELM PEPTIDE1{[ac].[Dab].T.[Dab].[Dab].[Dab].[dF].L.[Dab].[Dab].T}$PEPTIDE1,PEPTIDE1,5:R3-11:R2$$$V2.0) | < 3 | – | 0.355 | – | –
N#CCNC(=O)c1ccc(-c2ccnc(Nc3ccc(N4CCOCC4)cc3)n2)cc1 [MOMELOTINIB] | 5.13 | – | 0.103 | 2.37 | –
Cc1ccccc1C(OCCN(C)C)c1ccccc1 (stereo not given) [ORPHENADRINE] | > 150 | – | – | 1.47 | –
CO[C@H]1/C=C/O[C@@]2(C)Oc3c(C)c(O)c4c(O)c(cc(O)c4c3C2=O)NC(=O)/C(C)=C\C=C\[C@H](C)[C@H](O)[C@@H](C)[C@@H](O)[C@@H](C)[C@H](OC(C)=O)[C@@H]1C [RIFAMYCIN] | < 3 | – | – | 1.19 | –
CC[C@@]1(O)C(=O)OCc2c1cc1n(c2=O)Cc2cc3c(CN(C)C)c(O)ccc3nc2-1 [TOPOTECAN] | 3.24 | – | – | 0.31 | –

Second part, led by results:

hepatocyte CLint (in vitro [1]) [µL/min/1e6 cells] | microsomal CLint (in vitro [2]) [µL/min/mg] | fraction unbound at 5 h (in vitro [3]; PPB) | logD (physchem [4]; pH 7.4, LogD7.4) | SMILES | other results
> 150 | 56 | – | – | Oc1nc2c(O)ccc(CCNCCOCCCOCCc3ccccc3)c2s1 | –
22.9 | 7.41 | – | – | CCC(NC(=O)Nc1cc(Cl)ccc1Cl)(C(F)(F)F)C(F)(F)F | –
> 150 | 32.4 | – | – | CCn1c(SCC(=O)Nc2cc(C)on2)nnc1-c1ccccc1 | –
5.25 | – | – | – | CC(NC(=O)c1cc(O)nc2ccccc12)c1ccccc1 (stereo not given) | fraction unbound at 5 h (in vitro [3]): 0.36; logD (physchem [4]; pH 7.4): 2.2
50 | – | 0.0051 | 3.46 | O=c1cc(-c2cccnc2)[nH]c2cc(Cc3ccccc3)ccc12 | solubility thermodynamic (physchem [5]): 1.7 µM (≈ 0.531 µg/mL)
20.9 | 10 | – | – | CC(C)S(=O)(=O)c1ccc(-c2cnc(N)c(C(=O)Nc3ccccc3)n2)cc1 | –
34 | < 3 | – | – | Cc1c(Sc2ccc(Cl)cc2)c2cc(F)ccc2n1CC(=O)O | –
< 3 | – | 0.0736 | 0.78 | Cc1ccc(S(=O)(=O)Nc2c(C(=O)N[C@@H](C)C(C)(C)C)c(C)nn2C2CCOC2)cc1 (stereo not given in full) | –
148 | – | – | – | NC1(c2ccc(-c3nc4ccccc4cc3-c3ccccc3)cc2)CCC1 | solubility thermodynamic (physchem [5]): 288 µM (≈ 101 µg/mL)
< 3 | < 3 | – | – | Cc1cc(F)ccc1OC1CCN(CC2CCN([C@@H](Cc3ccc(F)cc3)C(=O)O)CC2)CC1 | –
< 3 | < 3 | – | – | O=C(O)Cc1ccccc1N1CCC(CN2CCC(Oc3ccc(Cl)c(Cl)c3)CC2)CC1 | –
72.4 | 55 | – | – | Nc1nnc(CCSCCc2nnc(NC(=O)Cc3ccccc3)s2)s1 | –
36.3 | – | 0.0119 | 1.68 | CCC(CC)C[C@H](c1ccc(C(=O)O)c(Oc2cccc(Cl)c2)c1)N1CCC[C@H](n2cc(C)c(=O)[nH]c2=O)C1 | –
52.5 | – | 0.0099 | 1.99 | CCCC(C)(C)C[C@H](c1ccc(C(=O)O)c(Oc2cccc(Cl)c2)c1)N1CCC[C@H](n2cc(C)c(=O)[nH]c2=O)C1 | –
89.1 | – | 0.0139 | 2.12 | Cc1cn([C@H]2CCCN(S(=O)(=O)c3ccc(O)c(Oc4ccc(Cl)cc4)c3)C2)c(=O)[nH]c1=O | –
74.1 | – | 0.0119 | – | Cc1cn([C@H]2CCCN(S(=O)(=O)c3ccc(O)c(Oc4cc(F)cc(Cl)c4)c3)C2)c(=O)[nH]c1=O | –
105 | 28 | – | – | CS(=O)(=O)Nc1ccc(CCOCCCS(=O)(=O)CCNCCc2ccc(O)c3nc(O)sc23)cc1 | –
< 3 | – | 0.0768 | – | CCCCCCCC(=O)N[C@@H](CCN)C(=O)N[C@@H](C)C(=O)N[C@@H](CCN)C(=O)N[C@H]1CCNC(=O)[C@H]([C@@H](C)O)NC(=O)[C@H](CCN)NC(=O)[C@H](CCN)NC(=O)[C@H](CC(C)C)NC(=O)[C@@H](Cc2ccccc2)NC(=O)[C@H](CCN)NC1=O (HELM PEPTIDE1{[CCCCCCCC(=O)[*:2]].[Dab].A.[Dab].[Dab].[Dab].[dF].L.[Dab].[Dab].T}$PEPTIDE1,PEPTIDE1,5:R3-11:R2$$$V2.0) | –
< 3 | – | 0.0581 | – | CCCCCCCC(=O)N[C@@H](CCN)C(=O)N[C@H](C(=O)N[C@@H](CCN)C(=O)N[C@H]1CCNC(=O)[C@H](C)NC(=O)[C@H](CCN)NC(=O)[C@H](CCN)NC(=O)[C@H](CC(C)C)NC(=O)[C@@H](Cc2ccccc2)NC(=O)[C@H](CCN)NC1=O)[C@@H](C)O (HELM PEPTIDE1{[CCCCCCCC(=O)[*:2]].[Dab].T.[Dab].[Dab].[Dab].[dF].L.[Dab].[Dab].A}$PEPTIDE1,PEPTIDE1,5:R3-11:R2$$$V2.0) | –
70.8 | – | 0.0209 | 3.16 | C[C@@]1(C(=O)Nc2ccc(F)nc2)CCCN1c1nc(Nc2cc(C3CC3)n[nH]2)c2cccn2n1 [BMS-754807] | –
22.4 | – | – | 2.55 | COC1=CC(c2cc3ccccc3[nH]2)=N/C1=C\c1[nH]c(C)cc1C [OBATOCLAX] | –
> 150 | – | – | – | CC(=O)[C@@]1(O)CC[C@H]2[C@@H]3CCC4=CC(=O)CCC4=C3[C@@H](c3ccc(N(C)C)cc3)C[C@@]21C [ULIPRISTAL] | fraction unbound at 5 h (in vitro [3]): 0.0049
17 | – | 0.253 | 1.82 | CN[C@@H](C)C(=O)N[C@H]1CN(C(=O)CC(C)C)CC[C@H]2CC[C@@H](C(=O)NC(c3ccccc3)c3ccccc3)N2C1=O [XEVINAPANT] | –

— ChEMBL document CHEMBL3301361, “Experimental in vitro DMPK and physicochemical data on a set of publicly disclosed compounds”
